Results reported in the supplement of paper PMC10307832.

Key:
Experiment in all cases: relative viability (nuclei count vs DMSO), 5 days (fraction); higher = more cells survive
Decitabine + Dasatinib = compound: Nc1ncn([C@H]2C[C@H](O)[C@@H](CO)O2)c(=O)n1 [Decitabine] + Cc1nc(Nc2ncc(C(=O)Nc3c(C)cccc3Cl)s2)cc(N2CCN(CCO)CC2)n1 [Dasatinib] (partner 0.075 µM)
Outline: (§1)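 Each reported value is a median over duplicate plates. It expresses relative viability: treated-well nuclei count divided by vehicle-well nuclei count. Lung cancer cell lines in 1536-well plates were dosed by pin tool a day after seeding, alone with one drug or with a fixed anchor-drug dose plus five library-drug doses (not always all listed) in √10 steps, and nuclei were counted after 5 days.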

Cediranib + Foretinib = compound: COc1cc2c(Oc3ccc4[nH]c(C)cc4c3F)ncnc2cc1OCCCN1CCCC1 [Cediranib] + COc1cc2c(Oc3ccc(NC(=O)C4(C(=O)Nc5ccc(F)cc5)CC4)cc3F)ccnc2cc1OCCCN1CCOCC1 [Foretinib] (partner 0.25 µM)
Outline: as §1

[1] = compound: O=C(C[C@H]1NCCC[C@@H]1O)Cn1cnc2cc(Br)c(Cl)cc2c1=O (racemic) [Halofuginone] + CC1(C)CCC(c2ccc(Cl)cc2)=C(CN2CCN(c3ccc(C(=O)NS(=O)(=O)c4ccc(N[C@H](CCN5CCOCC5)CSc5ccccc5)c(S(=O)(=O)C(F)(F)F)c4)cc3)CC2)C1 [Navitoclax] (partner 0.5 µM)
Outline: as §1

Decitabine + Olaparib = compound: Nc1ncn([C@H]2C[C@H](O)[C@@H](CO)O2)c(=O)n1 [Decitabine] + O=C(c1cc(Cc2n[nH]c(=O)c3ccccc23)ccc1F)N1CCN(C(=O)C2CC2)CC1 [Olaparib] (partner 8 µM)
Outline: as §1

Cell Line | relative viability (Decitabine + Dasatinib; first compound 0.04 µM) | relative viability (Decitabine + Dasatinib; first compound 0.1265 µM) | relative viability (Decitabine + Dasatinib; first compound 0.4 µM) | relative viability (Decitabine + Dasatinib; first compound 1.265 µM) | relative viability (Decitabine + Dasatinib; first compound 4 µM) | relative viability (Cediranib + Foretinib; first compound 0.04 µM) | relative viability (Cediranib + Foretinib; first compound 0.1265 µM) | relative viability (Cediranib + Foretinib; first compound 0.4 µM) | relative viability (Cediranib + Foretinib; first compound 1.265 µM) | relative viability (Cediranib + Foretinib; first compound 4 µM) | relative viability ([1]; first compound 0.001 µM) | relative viability ([1]; first compound 0.003162 µM) | relative viability ([1]; first compound 0.01 µM) | relative viability ([1]; first compound 0.03162 µM) | relative viability ([1]; first compound 0.1 µM) | relative viability (Decitabine + Olaparib; first compound 0.04 µM) | relative viability (Decitabine + Olaparib; first compound 0.1265 µM) | relative viability (Decitabine + Olaparib; first compound 0.4 µM) | relative viability (Decitabine + Olaparib; first compound 1.265 µM) | relative viability (Decitabine + Olaparib; first compound 4 µM)
NCI-H2126 | 0.603 | 0.547 | 0.429 | 0.421 | 0.376 | 1.26 | 1.2 | 1.04 | 1.16 | 1.05 | 0.87 | 0.822 | 0.824 | 0.824 | 0.831 | 0.63 | 0.546 | 0.459 | 0.42 | 0.85
NCI-H2170 | 0.528 | 0.502 | 0.461 | 0.269 | 0.228 | 1.02 | 0.987 | 0.931 | 1.01 | 1.12 | 0.631 | 0.724 | 0.595 | 0.699 | 0.387 | 0.271 | 0.201 | 0.216 | 0.137 | 0.134
NCI-H2228 | 0.324 | 0.354 | 0.135 | 0.161 | 0.155 | 0.986 | 0.882 | 0.761 | 0.838 | 0.99 | 0.976 | 0.857 | 0.879 | 0.228 | 0.126 | 0.194 | 0.235 | 0.104 | 0.145 | 0.157
NCI-H2347 | 0.295 | 0.315 | 0.351 | 0.283 | 0.286 | 0.918 | 1.03 | 0.996 | 0.833 | 0.957 | 0.814 | 0.838 | 0.859 | 0.845 | 0.589 | 0.528 | 0.578 | 0.469 | 0.464 | 0.424
NCI-H2405 | 0.209 | 0.194 | 0.286 | 0.204 | 0.203 | 1.1 | 1.13 | 1.03 | 1.1 | 1.02 | 0.986 | 0.855 | 0.878 | 0.784 | 0.542 | 0.613 | 0.467 | 0.374 | 0.313 | 0.312
NCI-H3122 | 0.665 | 0.833 | 0.233 | 0.321 | 0.459 | 0.938 | 1.03 | 0.991 | 0.844 | 1.02 | 0.994 | 1.02 | 0.966 | 1.01 | 1.05 | 0.34 | 0.307 | 0.225 | 0.201 | 0.206
